Structures are written as SMILES. Numbers after ± are expanded uncertainties.

The conditions of data set [1]: Liquid; for mass density: 298.15 K, 101.33 kPa; for Normal boiling temperature: Closed cell (Static) method.
A short description of data set [2]: refractive index (Na D-line) (dimensionless). As to conditions: 298.15 K; 101.33 kPa; Liquid; Standard Abbe refractometry.

As for `CC(C)O` [propan-2-ol], the mass density in data set [1] (Vibrating tube method) is listed as 782.69 ± 0.12 kg/m3. In addition, the Normal boiling temperature in data set [1] is 82.10 ± 0.2 °C. The refractive index in data set [2] is 1.3754 ± 0.0005.

Regarding `O` [water], the Normal boiling temperature in data set [1] was 100.00 ± 0.2 °C. Also, the refractive index in data set [2] is listed as 1.3332 ± 0.0005.

In the case of `CC(C)OC(C)C` [diisopropyl ether], in data set [1], the mass density is 718.32 ± 0.96 kg/m3 and the Normal boiling temperature is 68.2 ± 0.2 °C. For the same compound, the refractive index in data set [2] was 1.3652 ± 0.0005.

`CCCOCCC` [dipropyl ether]: in data set [1], the mass density is on record as 741.81 ± 0.56 kg/m3 and the Normal boiling temperature worked out at 90.01 ± 0.2 °C. Besides, the refractive index in data set [2] is 1.3784 ± 0.0005.

As to `CCCO` [propan-1-ol], in data set [1], the mass density worked out at 799.62 ± 0.79 kg/m3 and the Normal boiling temperature came to 96.60 ± 0.2 °C. For the same compound, the refractive index in data set [2] is 1.3836 ± 0.0005.

Values taken from the NIST ThermoML archive (doi:10.1016/j.jct.2008.01.002).
